What all share (assay): Bliss excess, mean over the matrix (fraction); higher = more synergy
In assay [1] the test system is SK-OV-3 (Ovarian Carcinoma). The procedure, abridged:
(§1)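 Cell lines in DMEM/F12 or RPMI with 10% FBS were plated in 1536-well plates, held 24 hours at 37°C, 5% CO2, then given two-drug dose matrices for 72 hours (DMSO typically 0.2%). Viability was read by CellTiter-Glo 2.0 luminescence and scaled as inhibition from 0 (vehicle wells) to 1 (blank wells). Combination Emax is the second-highest inhibition in the matrix; Bliss excess is observed combination effect minus expected EA + EB − EA·EB, EA and EB being single-agent effects.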

The subject of the next assay is NCI-H2461 (Mesothelioma). In a few lines: as §1
Assay [2] deals with NCI-H69 (Small Cell Lung Carcinoma). The procedure, abridged:
as §1

Assay [3] has as its system 8305C (Thyroid Gland Carcinoma). In a few lines: as §1
Assay [4] relates to K5 (Thyroid Gland Carcinoma). The procedure, abridged: as §1
A further assay concerns COLO-829 (Melanoma). In a few lines: as §1
The test system of assay [5] is HDLM-2 (Hodgkin's Lymphoma). The procedure, abridged: as §1
Assay [6] concerns HO-1-u-1 (Oral Cavity Carcinoma). The procedure, abridged: as §1
For assay [7], the system named is SW1116 (Colorectal Carcinoma). The procedure, abridged:
as §1

For a further assay, the system named is Mewo (Melanoma). In a few lines: as §1
In assay [8] the test system is CAPAN-1 (Pancreatic Carcinoma). In a few lines: as §1
For assay [9], the system named is KARPAS-231 (B-Cell Non-Hodgkin's Lymphoma). In a few lines:
as §1

Assay [10] relates to SUP-T1 (T-Lymphoblastic Leukemia). The procedure, abridged:
as §1

Assay [11] deals with HARA (Squamous Cell Lung Carcinoma). The procedure, abridged:
as §1

The test system of assay [12] is RPMI-6666 (Non-Cancerous). The procedure, abridged:
as §1

The subject of assay [13] is MDA-MB-468 (Breast Carcinoma). In a few lines:
as §1

The subject of assay [14] is SU-DHL-6 (B-Cell Non-Hodgkin's Lymphoma). The procedure, abridged:
as §1

In assay [15] the test system is Hs-633T (Other Solid Carcinomas). The procedure, abridged: as §1
A further assay concerns HMV-II (Melanoma). The procedure, abridged:
as §1

For assay [16], the system named is CAL-54 (Kidney Carcinoma). In a few lines:
as §1

On to `COc1cccc(OCCCN)c1-c1cc(Nc2cnc(C#N)cn2)n[nH]1` [Prexasertib] + C[C@@H]1COCCN1C2=NC(=NC(=C2)C3(CC3)[S@](=N)(=O)C)C4=C5C=CNC5=NC=C4 [AZD6738] (first compound max 1 µM, 7x7, partner max 10 µM), for which the Bliss excess in assay [1] is -0.0412; in the assay on NCI-H2461 (Mesothelioma), -0.0344; in [2], -0.0356; in assay [3], -0.0226; in [4], 0.0037; with COLO-829 (Melanoma) it was 0.001. The Bliss excess in [5] is -0.0669; in assay [6], -0.0013; in assay [7], 0.0637; with Mewo (Melanoma), -0.0403; in assay [8] it was -0.0436; in assay [9], -0.0498. The Bliss excess in [10] is -0.0374; in assay [11], -0.0117; in assay [12], -0.0467; in [13], -0.0106; in assay [14], -0.0158; in [15] it was 0.0095. In addition, the results for the Bliss excess (in the assay on HMV-II (Melanoma); in assay [16]) were 0.0359 and -0.0883, respectively.
Consider `CN(CCO)CC[C@H](CSc1ccccc1)Nc1ccc(S(=O)(=O)NC(=O)c2ccc(N3CCC([C@@H](O)c4ccccc4-c4ccc(Cl)cc4)CC3)cc2)cc1S(=O)(=O)C(F)(F)F` [AZD4320] + C=CCn1c(=O)c2cnc(Nc3ccc(N4CCN(C)CC4)cc3)nc2n1-c1cccc(C(C)(C)O)n1 [AZD1775] (first compound max 1 µM, partner max 1 µM), for which the Bliss excess in [1] was 0.0069; with NCI-H2461 (Mesothelioma) it was 0.016; in assay [2] it was -0.0213; in assay [3], -0.0178; in [4], 0.0069; in the assay with COLO-829 (Melanoma), -0.0167. Moreover, the Bliss excess in [5] is 0.106; in [6] it was 0.0066; in [7], 0.0003; in the assay on Mewo (Melanoma), 0.0306; in assay [8] it was 0.0172; in assay [9], 0.117. Moreover, the Bliss excess was 0.0212 in assay [10]; -0.0129 in [11]; 0.0219 in [12]; 0.032 in [13]; 0.14 in [14]; 0.0672 in assay [15]. The Bliss excess was determined as 0.0496 in the assay on HMV-II (Melanoma) and 0.146 in assay [16].
With `Cc1cc2ncnn2cc1Nc1ncc2c(n1)n(C1CCOCC1)c(=O)n2C` [AZD7648] + CN(C)CCCOc1ccc(-c2ccc3ncc4c(c3c2)n(C2CCOCC2)c(=O)n4C)cn1 [AZD0156] (first compound max 10 µM, 7x7, partner max 1 µM), the Bliss excess is -0.0289 in assay [1]; -0.0442 in the assay on NCI-H2461 (Mesothelioma); -0.044 in [2]; -0.061 in assay [3]; -0.0226 in assay [4]; -0.0203 with COLO-829 (Melanoma). Further, the Bliss excess in assay [5] was -0.0381; in [6], -0.0542; in [7], -0.0064; in the assay with Mewo (Melanoma), 0.0033; in assay [8] it was -0.0201; in assay [9], 0.0157. Also, the Bliss excess is -0.0241 in assay [10]; 0.0352 in assay [11]; -0.101 in assay [12]; 0.0032 in assay [13]; -0.0502 in assay [14]; 0.0271 in assay [15]. Further, the results for the Bliss excess (with HMV-II (Melanoma); in assay [16]) were -0.0169 and -0.0384, respectively.
Take `CN(CCO)CC[C@H](CSc1ccccc1)Nc1ccc(S(=O)(=O)NC(=O)c2ccc(N3CCC([C@@H](O)c4ccccc4-c4ccc(Cl)cc4)CC3)cc2)cc1S(=O)(=O)C(F)(F)F` [AZD4320] + C[C@@H]1COCCN1C2=NC(=NC(=C2)C3(CC3)[S@](=N)(=O)C)C4=C5C=CNC5=NC=C4 [AZD6738] (first compound max 1 µM, 7x7, partner max 10 µM): the Bliss excess is -0.0984 in assay [1]; -0.0341 with NCI-H2461 (Mesothelioma); -0.0446 in assay [2]; -0.004 in [3]; -0.0512 in [4]; -0.0409 in the assay on COLO-829 (Melanoma). For the same molecule, the Bliss excess is -0.0171 in assay [5]; 0.021 in assay [6]; -0.0406 in assay [7]; -0.0275 in the assay with Mewo (Melanoma); 0.0034 in assay [8]; -0.0331 in assay [9]. The Bliss excess in assay [10] was -0.0356; in assay [11] it was -0.0319; in [12], -0.0271; in assay [13] it was 0.0161; in [14] it was -0.0311; in [15], -0.0092. Besides, the values for the Bliss excess (in the assay on HMV-II (Melanoma); in [16]) were -0.0476 and -0.0435, respectively.
`CCc1c2c(nc3ccc(O)cc13)-c1cc3c(c(=O)n1C2)COC(=O)[C@]3(O)CC` [SN-38] + O=C(c1cc(Cc2n[nH]c(=O)c3ccccc23)ccc1F)N1CCN(C(=O)C2CC2)CC1 [Olaparib] (first compound max 0.3 µM, 7x7, partner max 10 µM): the Bliss excess in assay [1] was 0.0571; in the assay on NCI-H2461 (Mesothelioma) it was 0.0234; in [2] it was -0.0035; in assay [3], 0.04; in assay [4], 0.0566; with COLO-829 (Melanoma), -0.0186. The Bliss excess is -0.0438 in [5]; 0.0415 in [6]; 0.0152 in assay [7]; 0.008 in the assay on Mewo (Melanoma); 0.0168 in assay [8]; 0.113 in [9]. The Bliss excess was determined as 0.0435 in assay [10]; 0.124 in assay [11]; 0.0394 in assay [12]; 0.0941 in [13]; 0.0391 in [14]; 0.17 in assay [15]. The Bliss excess with HMV-II (Melanoma) is 0.0175; in [16], -0.0068.
For the molecule `CN(CCO)CC[C@H](CSc1ccccc1)Nc1ccc(S(=O)(=O)NC(=O)c2ccc(N3CCC([C@@H](O)c4ccccc4-c4ccc(Cl)cc4)CC3)cc2)cc1S(=O)(=O)C(F)(F)F` [AZD4320] + C1CN(CCC1(C(=O)N[C@@H](CCO)C2=CC=C(C=C2)Cl)N)C3=NC=NC4=C3C=CN4 [Capivasertib] (first compound max 1 µM, 7x7, partner max 3 µM), the Bliss excess in [1] is -0.0663; in the assay on NCI-H2461 (Mesothelioma) it was -0.0564; in [2], -0.0153; in assay [3], -0.0663; in assay [4], -0.0525; in the assay with COLO-829 (Melanoma), -0.0988. For the same molecule, the Bliss excess in assay [5] is -0.0284; in [6], -0.0621; in [7], -0.0612; in the assay with Mewo (Melanoma), -0.0262; in assay [8], -0.0405; in assay [9], 0.0407. Moreover, the Bliss excess in assay [10] was -0.0639; in assay [11] it was -0.0268; in assay [12], 0.0083; in [13], -0.0528; in [14], 0.0292; in assay [15], -0.0193. In addition, the Bliss excess was -0.0431 in the assay on HMV-II (Melanoma) and -0.0694 in assay [16].

The record behind these values is the supplement of paper PMC11061612.
